Experimental data as given in patent US9382267B2, “Small molecule inhibitors of nicotinamide phosphoribosyltransferase (NAMPT)” (The Curators of the University of Missouri, priority 2011, dated 2016).
Where two headings read alike, the source gives them in different places.

Experiments:
[1] = tested on: A549 human lung cancer cell line; test: MTT assay, A549; format: cell-based; details: A549 (Lung) human tumor cell line
Procedure: (§1) A549, DLD1, T47D and PC3 were purchased from ATCC (Manassas, Va.). MTT assay kit was purchased from Promega (Madison, Wis.). FK866 and NMN were purchased from Enzo Life Sciences (Farmingdale, N.Y.) and Sigma (St Louis, Mo.) respectively.
(§2) Additional MTT assays are show in FIGS. 11(A)-(D) and FIG. 12 for compounds (33)-(37).
(§3) The assay was performed according to the manufacturers protocol (CycLex NAMPT Colorimetric Assay Kit, MBL International Corp., Woburn, Mass.). The NAMPT assay was performed according manufacturers protocol. Briefly we used the “1-Step Assay Method” for which following reagents were mixed to make assay buffer and kept at ice before starting the assay: 10 μL each of 10× Nampt assay buffer, nicotinamide, PRPP, ATP and EtOH; 2 μL each of recombinant NMNAT1, WST-1, ADH, diaphorase and D2O. The Nampt inhibition assay was performed by mixing 2 μl of various concentrations (to make 1 pM-100 nM) of FK866 or (6) (or 2 μL DMSO as vehicle control) with the following: 2 μL recombinant Nampt and 36 μL D2O. The reaction was initiated by adding 60 μL of 1-Step Assay Buffer to each well and mixed thoroughly followed by incubation at 30° C. for 20 mins. After this period, the absorbance at 450 nm was measured and compared with the positive control. […] TABLE 4 lists measured Half-Maximal Inhibitory Concentrations (IC50) against Human Tumor Cell Lines A549 (Lung), DLD1 (Colon), and T47D (Breast).

[2] = tested on: DLD1 (Colon) human tumor cell line; test: MTT assay, DLD1; format: cell-based
Procedure: as §1, §2, §3

[3] = tested on: T47D (Breast) human tumor cell line; test: MTT assay, T47D; format: cell-based
Procedure: as §1, §2, §3

[4] = tested on: A549 cells; test: Cell rescue assay with nicotinamide mononucleotide (NMN); format: cell-based, human; details: A549 cells treated with 10 nM agent; 1, 10 or 100 μM NMN; 72 h; MTT
Procedure: A549 cells were treated with 10 nM (1), (5), (6), or (7). Error bars represent the mean±SD. Cell viability was measured using the MTT assay. Each measurement was repeated 4 times.
Cell rescue assays were conducted using Nicotinamide Mononucleotide (NMN) as described by Busso et al. (Busso, N.; Karababa, M.; Nobile, M.; Rolaz, A.; Van Gool, F.; Galli, M.; Leo, O.; So, A.; De Smedt, T. Pharmacological inhibition of nicotinamide phosphoribosyltransferase/visfatin enzymatic activityidentifies a new inflammatory pathway linked to NAD. PLoS One 2008, […], e2267.) Briefly, A549 and DLD1 cells were plated at a density of 10,000 cells per well in 96 well plates for overnight. Cells were then treated with 10 nM concentrations of agents (1), (5)-(7). Simultaneously, concentrations of 1, 10 or 100 μM NMN were added to the cultures. Cultures were then continued for 72 h. MTT reagent was added to the cells after 72 h for a period of 3 h and then MTT crystals were solubilized using solubilization buffer. Readings were taken at 570 nm wavelength. Control cells were considered as 100% survival to plot the inhibition and rescue graph. The experiments were repeated four times.

[5] = tested on: DLD1; test: Scratch test (wound healing) assay; format: cell-based, human; details: for relative potencies of the compounds: wound healing experiments, consistent with cell viability assays; for inhibition of cancer cell migration: 1 nM test agent, 24 h, FIG. 9
Procedure: The antimigratory effects of compounds (5)-(7) were compared with FK866 by employing a wound healing or scratch test analysis using various cell cancer lines. The assay measures the ability of a drug to inhibit cancer cell migration across a gap “scratched” in a confluent layer of cells. The cells were imaged immediately after the formation of the wound and then incubated with 1 nM concentrations of each test agent. After 24 h, the wounds were imaged again and compared with a control group of untreated cells. […] The results of the wound healing experiments are consistent with those from the cell viability assays with regard to the relative potencies of the compounds (6)>(7)>(5)>FK866.

IC50 [1] [nM] | IC50 [2] [nM] | IC50 [3] [nM] | IC50 ([2]; DLD-1) [nM] | Compound | cell rescue by NMN [4] | relative potencies of the compounds [5] | inhibition of cancer cell migration [5]
0.99 ± 0.03 | 2.2 ± 0.12 | 0.58 ± 0.03 |  | 1-(4′-(Trans-3″-(3′″-pyridyl)acrylamido)butyl)-1,12-dicarba-closo-dodecaborane [Compound 7] | nearly complete rescue | (6)>(7)>(5)>FK866 | 
0.41 ± 0.01 | 0.31 ± 0.01 | 0.32 ± 0.02 |  | 1-(4′-(Trans-3″-(3′″pyridyl)acrylamido)butyl)-1,7-dicarba-closo-dodecaborane [Compound 6] | nearly complete rescue | (6)>(7)>(5)>FK866 | highest potency
1.62 ± 0.04 |  | 3.2 ± 0.16 | 3.14 ± 0.11 | O=C(/C=C/c1cccnc1)NCCCCC1CCN(C(=O)c2ccccc2)CC1 [Compound 1, reference compound] | nearly complete rescue | (6)>(7)>(5)>FK866 | partially inhibited cell migration
88.9 ± 1.1 |  | 186 ± 4.1 | 20.3 ± 0.44 | O=C(/C=C/c1cccnc1)NCCC#CC12CC3CC(CC(C3)C1)C2 [Compound 4] |  |  | 
